For orientation: IC50 means the point on the concentration scale where inhibition reaches its midpoint.

The target in this experiment is NLRP3 (Homo sapiens, UniProt Q96P20). Briefly: THP-1 cells pyroptosis assay. The conditions noted are these: 1.0 μg/ml LPS, nigericin 5 μM, resazurin readout. Format: cell-based. More on the design: Seed THP-1 cells (25,000 cells/well) containing 1.0 μg/ml LPS; host or cells: THP-1 cells, LPS-primed, nigericin-stimulated. The text has this: It is well established that the activation of NLRP3 leads to cell pyroptosis and this feature plays an important part in the manifestation of clinical disease (Yan-gang Liu et al., Cell Death & Disease, 2017, 8(2), e2579; Alexander Wree et al., Hepatology, 2014, 59(3), 898-910; Alex Baldwin et al., Journal of Medicinal Chemistry, 2016, 59(5), 1691-1710; Ema Ozaki et al., Journal of Inflammation Research, 2015, 8, 15-27; Zhen Xie & Gang Zhao, Neuroimmunology Neuroinflammation, 2014, 1(2), 60-65; Mattia Cocco et al., Journal of Medicinal Chemistry, 2014, 57(24), 10366-10382; T. Satoh et al., Cell Death & Disease, 2013, 4, e644). Therefore, it is anticipated that inhibitors of NLRP3 will block pyroptosis, as well as the release of pro-inflammatory cytokines (e.g. IL-1β) from the cell.
Sequence of NLRP3 (Q96P20 whole entry): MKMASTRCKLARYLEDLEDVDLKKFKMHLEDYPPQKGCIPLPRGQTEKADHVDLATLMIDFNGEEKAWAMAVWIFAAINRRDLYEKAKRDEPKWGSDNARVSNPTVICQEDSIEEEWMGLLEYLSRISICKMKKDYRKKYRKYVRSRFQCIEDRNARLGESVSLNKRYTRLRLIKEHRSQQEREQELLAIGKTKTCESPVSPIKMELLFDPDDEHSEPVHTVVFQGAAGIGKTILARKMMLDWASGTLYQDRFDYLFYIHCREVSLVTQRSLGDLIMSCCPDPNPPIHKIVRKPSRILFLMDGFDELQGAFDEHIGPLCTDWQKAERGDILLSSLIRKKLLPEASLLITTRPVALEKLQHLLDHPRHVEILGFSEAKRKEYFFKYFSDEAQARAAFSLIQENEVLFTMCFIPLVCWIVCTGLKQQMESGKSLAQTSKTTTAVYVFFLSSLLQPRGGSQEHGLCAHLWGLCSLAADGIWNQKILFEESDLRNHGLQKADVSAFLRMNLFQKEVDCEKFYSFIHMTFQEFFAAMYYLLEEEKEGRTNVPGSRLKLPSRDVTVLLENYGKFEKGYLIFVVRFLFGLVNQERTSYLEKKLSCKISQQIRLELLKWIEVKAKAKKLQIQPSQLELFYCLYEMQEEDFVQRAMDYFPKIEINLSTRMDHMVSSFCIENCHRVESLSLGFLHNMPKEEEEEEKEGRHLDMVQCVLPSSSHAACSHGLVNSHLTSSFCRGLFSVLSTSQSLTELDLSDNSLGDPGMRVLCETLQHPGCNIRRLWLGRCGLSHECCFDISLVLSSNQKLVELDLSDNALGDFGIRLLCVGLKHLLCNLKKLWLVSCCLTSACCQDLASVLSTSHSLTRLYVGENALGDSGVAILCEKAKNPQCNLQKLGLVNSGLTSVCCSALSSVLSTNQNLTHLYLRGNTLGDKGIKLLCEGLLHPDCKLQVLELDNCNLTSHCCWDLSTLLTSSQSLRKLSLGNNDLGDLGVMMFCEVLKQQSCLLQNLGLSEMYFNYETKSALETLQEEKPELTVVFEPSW
THP-1 cells (ATCC #TIB-202) were grown in RPMI containing L-glutamine (Gibco #11835) supplemented with 1 mM sodium pyruvate (Sigma #S8636) and penicillin (100 units/ml)/streptomycin (0.1 mg/ml) (Sigma #P4333) in 10% Fetal Bovine Serum (FBS) (Sigma #F0804). The cells were routinely passaged and grown to confluency (˜10^6 cells/ml). On the day of the experiment, THP-1 cells were harvested and resuspended into RPMI medium (without FBS). The cells were then counted and viability (>90%) checked by Trypan blue (Sigma #T8154). Appropriate dilutions were made to give a concentration of 625,000 cells/ml. To this diluted cell solution was added LPS (Sigma #L4524) to give a 1 μg/ml Final Assay Concentration (FAC). 40 μl of the final preparation was aliquoted into each well of a 96-well plate. The plate thus prepared was used for compound screening.
The following method step-by-step assay was followed for compound screening. • 1. Seed THP-1 cells (25,000 cells/well) containing 1.0 μg/ml LPS in 40 μl of RPMI medium (without FBS) in 96-well, black walled, clear bottom cell culture plates coated with poly-D-lysine (VWR #734-0317) • 2. Add […] compound (8 points half-log dilution, with 10 μM top dose) or vehicle (DMSO 0.1% FAC) to the appropriate wells • 3. Incubate for 3 hrs at 37° C. in 5% CO2 • 4. Add 5 μl nigericin (Sigma #N7143) (FAC 5 μM) to all wells • 5. Incubate for 1 hr at 37° C. and 5% CO2 • 6. At the end of the incubation period, spin plates at 300×g for 3 mins and remove supernatant • 7. Then add 50 μl of resazurin (Sigma #R7017) (FAC 100 μM resazurin in RPMI medium without FBS) and incubate plates for a further 1-2 hrs at 37° C. and 5% CO2 • 8. Plates were read in an Envision reader at Ex 560 nm and Em 590 nm • 9. IC50 data is fitted to a non-linear regression equation (log inhibitor vs response-variable slope 4-parameters)
Regarding `CC(=O)N1CC(n2ccc(S(=O)(=O)NC(=O)Nc3c4c(cc5c3CCC5)CCC4)n2)C1` [Example 3, 1-(1-Acetylazetidin-3-yl)-N-((1,2,3,5,6,7-hexahydro-s-indacen-4-yl)carbamoyl)-1H-pyrazole-3-sulfonamide], the IC50 was in the range of 640 to 2560 nM.

`CN1CCn2nc(S(=O)(=O)NC(=O)Nc3c4c(cc5c3CCC5)CCC4)cc2C1=O` [Example 4, N-((1,2,3,5,6,7-Hexahydro-s-indacen-4-yl)carbamoyl)-5-methyl-4-oxo-4,5,6,7-tetrahydropyrazolo[1,5-a]pyrazine-2-sulfonamide]: the IC50 fell in the range of 2560 to 10000 nM.

Consider `CC(=O)N1CCC(n2ccc(S(=O)(=O)NC(=O)Nc3c4c(cc5c3CCC5)CCC4)n2)CC1` [Example 5, 1-(1-Acetylpiperidin-4-yl)-N-((1,2,3,5,6,7-hexahydro-s-indacen-4-yl)carbamoyl)-1H-pyrazole-3-sulfonamide], for which the 50% inhibitory concentration (IC50) is 2560 to 10000 nM.

`CN(C)CCCN(C)C(=O)c1cc(S(=O)(=O)NC(=O)Nc2c3c(cc4c2CCC4)CCC3)nn1C` [Example 6, N-(3-(Dimethylamino)propyl)-3-(N-((1,2,3,5,6,7-hexahydro-s-indacen-4-yl)carbamoyl)sulfamoyl)-N,1-dimethyl-1H-pyrazole-5-carboxamide] yielded an IC50 of 2560 to 10000 nM.

Compound `CC(C)c1cccc(C(C)C)c1NC(=O)NS(=O)(=O)c1cc(C(=O)N(C)C2CCC2)n(C)n1` [Example 8, N-Cyclobutyl-3-(N-((2,6-diisopropylphenyl)carbamoyl)sulfamoyl)-N,1-dimethyl-1H-pyrazole-5-carboxamide] displayed a half-inhibitory concentration (IC50) of 640 to 2560 nM.

Regarding `CN(CCC#N)C(=O)c1cc(S(=O)(=O)NC(=O)Nc2c3c(cc4c2CCC4)CCC3)nn1C` [Example 9, N-(2-Cyanoethyl)-3-(N-((1,2,3,5,6,7-hexahydro-s-indacen-4-yl)carbamoyl)sulfamoyl)-N,1-dimethyl-1H-pyrazole-5-carboxamide], the IC50 fell in the range of 160 to 640 nM.

The compound `CN(C)CCN(C)C(=O)c1cc(S(=O)(=O)NC(=O)Nc2c3c(cc4c2CCC4)CCC3)nn1C` [Example 10, N-(2-(Dimethylamino)ethyl)-3-(N-((1,2,3,5,6,7-hexahydro-s-indacen-4-yl)carbamoyl)sulfamoyl)-N,1-dimethyl-1H-pyrazole-5-carboxamide] came in with an IC50 of 640 to 2560 nM.

Compound `CN(C(=O)c1cc(S(=O)(=O)NC(=O)Nc2c3c(cc4c2CCC4)CCC3)nn1C)C1CCCC1` [Example 11, N-Cyclopentyl-3-(N-((1,2,3,5,6,7-hexahydro-s-indacen-4-yl)carbamoyl)sulfamoyl)-N,1-dimethyl-1H-pyrazole-5-carboxamide] yielded an IC50 of 640 to 2560 nM.

`CC(=O)N(C)CCN(C)C(=O)c1cc(S(=O)(=O)NC(=O)Nc2c3c(cc4c2CCC4)CCC3)nn1C` [Example 12, 3-(N-((1,2,3,5,6,7-Hexahydro-s-indacen-4-yl)carbamoyl)sulfamoyl)-N,1-dimethyl-N-(2-(N-methylacetamido)ethyl)-1H-pyrazole-5-carboxamide] came in with a half-maximal inhibitory concentration (IC50) of 2560 to 10000 nM.

In turn, `CC(=O)NCCN(C)C(=O)c1cc(S(=O)(=O)NC(=O)Nc2c3c(cc4c2CCC4)CCC3)nn1C` [Example 13, N-(2-Acetamidoethyl)-3-(N-((1,2,3,5,6,7-hexahydro-s-indacen-4-yl)carbamoyl)sulfamoyl)-N,1-dimethyl-1H-pyrazole-5-carboxamide] came in with an IC50 of 2560 to 10000 nM.

`CN(C(=O)c1cc(S(=O)(=O)NC(=O)Nc2c3c(cc4c2CCC4)CCC3)nn1C)C1CCOCC1` [Example 14, 3-(N-((1,2,3,5,6,7-Hexahydro-s-indacen-4-yl)carbamoyl)sulfamoyl)-N,1-dimethyl-N-(tetrahydro-2H-pyran-4-yl)-1H-pyrazole-5-carboxamide] showed an IC50 of 2560 to 10000 nM.

As for `CN(C(=O)c1cc(S(=O)(=O)NC(=O)Nc2c3c(cc4c2CCC4)CCC3)nn1C)C1COC1` [Example 17, 3-(N-((1,2,3,5,6,7-Hexahydro-s-indacen-4-yl)carbamoyl)sulfamoyl)-N,1-dimethyl-N-(oxetan-3-yl)-1H-pyrazole-5-carboxamide], the half-inhibitory concentration (IC50) was 640 to 2560 nM.

For `CN(CC(O)CO)C(=O)c1cc(S(=O)(=O)NC(=O)Nc2c3c(cc4c2CCC4)CCC3)nn1C` (stereo not drawn) [Example 19, N-(2,3-Dihydroxypropyl)-3-(N-((1,2,3,5,6,7-hexahydro-s-indacen-4-yl)carbamoyl)sulfamoyl)-N,1-dimethyl-1H-pyrazole-5-carboxamide], the concentration for half-maximal inhibition (IC50) lay within 640 to 2560 nM.

With `CC(C)c1cccc(C(C)C)c1NC(=O)NS(=O)(=O)c1cc(C(=O)N2CCOCC2)n(C)n1` [Example 21, N-((2,6-Diisopropylphenyl)carbamoyl)-1-methyl-5-(morpholine-4-carbonyl)-1H-pyrazole-3-sulfonamide], the IC50 was in the range of 640 to 2560 nM.

The compound `COCCN(C)C(=O)c1cc(S(=O)(=O)NC(=O)Nc2c(C(C)C)cccc2C(C)C)nn1C` [Example 22, 3-(N-((2,6-Diisopropylphenyl)carbamoyl)sulfamoyl)-N-(2-methoxyethyl)-N,1-dimethyl-1H-pyrazole-5-carboxamide] yielded an IC50 of 2560 to 10000 nM.

On to `COCCN(CCOC)C(=O)c1cc(S(=O)(=O)NC(=O)Nc2c(C(C)C)cccc2C(C)C)nn1C` [Example 23, 3-(N-((2,6-Diisopropylphenyl)carbamoyl)sulfamoyl)-N,N-bis(2-methoxyethyl)-1-methyl-1H-pyrazole-5-carboxamide], for which the concentration for half-maximal inhibition (IC50) was 2560 to 10000 nM.

In turn, `Cn1nc(S(=O)(=O)NC(=O)Nc2c3c(cc4c2CCC4)CCC3)cc1C(=O)N1CCC(O)CC1` [Example 24, N-((1,2,3,5,6,7-Hexahydro-s-indacen-4-yl)carbamoyl)-5-(4-hydroxypiperidine-1-carbonyl)-1-methyl-1H-pyrazole-3-sulfonamide] came in with an IC50 of 2560 to 10000 nM.

The compound `COC1CCN(C(=O)c2cc(S(=O)(=O)NC(=O)Nc3c4c(cc5c3CCC5)CCC4)nn2C)C1` (stereo not drawn) [Example 25, N-((1,2,3,5,6,7-Hexahydro-s-indacen-4-yl)carbamoyl)-5-(3-methoxypyrrolidine-1-carbonyl)-1-methyl-1H-pyrazole-3-sulfonamide] registered a half-maximal inhibitory concentration (IC50) of 2560 to 10000 nM.

Take `Cn1nc(S(=O)(=O)NC(=O)Nc2c3c(cc4c2CCC4)CCC3)cc1C(=O)N1CCOCC1` [Example 28, N-((1,2,3,5,6,7-Hexahydro-s-indacen-4-yl)carbamoyl)-1-methyl-5-(morpholine-4-carbonyl)-1H-pyrazole-3-sulfonamide]: the IC50 was in the range of 640 to 2560 nM.

In turn, `CC(C)c1cc(F)cc(C(C)C)c1NC(=O)NS(=O)(=O)c1cc(C(=O)N2CCC2)n(C(C)C)n1` [Example 30, 5-(Azetidine-1-carbonyl)-N-((4-fluoro-2,6-diisopropylphenyl)carbamoyl)-1-isopropyl-1H-pyrazole-3-sulfonamide] displayed an IC50 of 160 to 640 nM.

As for `CC(C)c1ccc(-c2cncnc2)cc1NC(=O)NS(=O)(=O)c1cc(C(=O)N(C)C)n(C)n1` [Example 34, 3-(N-((2-Isopropyl-5-(pyrimidin-5-yl)phenyl)carbamoyl)sulfamoyl)-N,N,1-trimethyl-1H-pyrazole-5-carboxamide], the half-inhibitory concentration (IC50) is 640 to 2560 nM.

In turn, `CC(C)c1ccc(-c2cnn(C)c2)cc1NC(=O)NS(=O)(=O)c1cc(C(=O)N(C)C)n(C)n1` [Example 36, 3-(N-((2-Isopropyl-5-(1-methyl-1H-pyrazol-4-yl)phenyl)carbamoyl)sulfamoyl)-N,N,1-trimethyl-1H-pyrazole-5-carboxamide] came in with a half-inhibitory concentration (IC50) of 640 to 2560 nM.

Consider `CC(C)NC(=O)c1cc(S(=O)(=O)NC(=O)Nc2c(C(C)C)cccc2C(C)C)nn1C` [Example 38, 3-(N-((2,6-Diisopropylphenyl)carbamoyl)sulfamoyl)-N-isopropyl-1-methyl-1H-pyrazole-5-carboxamide], for which the 50% inhibitory concentration (IC50) lay within 2560 to 10000 nM.

The compound `CC(C)c1cccc(C(C)C)c1NC(=O)NS(=O)(=O)c1cc(C(=O)N(C)CC#N)n(C)n1` [Example 40, N-(Cyanomethyl)-3-(N-((2,6-diisopropylphenyl)carbamoyl)sulfamoyl)-N,1-dimethyl-1H-pyrazole-5-carboxamide] had an IC50 of 2560 to 10000 nM.

The values are drawn from patent US20210122739A1, “NOVEL SULFONAMIDE CARBOXAMIDE COMPOUNDS” (Inflazome Limited, priority 2017, published 2021).
